Entries after “also recorded” stand apart in the source; their conditions may differ.
System: otherwise healthy adults reporting regular illicit opioid misuse
Assay: Double-blind within-subject crossover inpatient study: subject-rated outcomes of intranasal oxycodone during tradipitant vs placebo maintenance (sample sessions)
Assay type: in vivo, human
Description: A double-blind, inpatient, approximately 6 week study employing a within-subject crossover design examines the effects of maintenance with tradipitant as compared to placebo on response to oxycodone. Study subjects include otherwise healthy adults reporting regular illicit opioid misuse, and history of intranasal opioid use without physical dependence.
Subjects are administered placebo or tradipitant (85 mg p.o., bid) on study days 3-17 with a washout period on days 18-23, followed by administration of placebo or tradipitant (85 mg p.o., bid) on study days 24-39. In the study, tradipitant/placebo administration is counterbalanced across subjects. On study days 3, […], 24, and 39, subjects participate in challenge sessions (day 1 and steady state) in which they receive 0, 5, 10, or 20 mg intranasal (IN) oxycodone at 1 hr. intervals, after which effect of tradipitant on analgesia in humans is evaluated. On study days 2, 8, 11, 15, 29, 32, and 36, subjects participate in sample sessions in which subjects are administered 0, 15, or 30 mg IN oxycodone, after which effect of tradipitant on subject-rated outcomes is evaluated. Such subject-rated outcomes include responses to questions including “how much do you like the drug,” “does the drug have any good effects,” “do you feel any drug effect,” and “how much do you desire opiates right now?” Further, on study days 9, 12, 16, 30, 33, and 37, subjects participate in choice sessions, in which effect of tradipitant on oxycodone self-administration is evaluated.

[1] = 0, 15 or 30 mg IN oxycodone, difference from 0 mg
[2] = tradipitant 85 mg p.o. bid maintenance, at some opioid drug doses, e.g. 15 mg IN oxycodone, FIGS. 1-3

Row | SMILES | effect of oxycodone dose on trough scores for desire for opioids (0, 15 or 30 mg IN oxycodone) | peak ratings of good effects [1] | peak ratings of liking for the drug [1] | peak ratings of overall drug effect [1] | desire for opioids (cravings), trough scores ("how much do you desire opiates right now?") (tradipitant 85 mg p.o. bid maintenance compared to placebo maintenance, 0, 15 or 30 mg IN oxycodone, FIG. 4) | perception of how good the effects of the drug were [2] | perception of how much of a drug effect was felt [2] | perception of how much the opioid drug was liked [2] | pleasurable and drug seeking sensations (tradipitant maintenance, at some doses)
1 | COc1ccc2c3c1O[C@H]1C(=O)CC[C@@]4(O)[C@@H](C2)N(C)CC[C@]314 [Oxycodone, oxycodone, reference compound] | no significant effect | significant and dose-dependent increases | significant and dose-dependent increases | significant and dose-dependent increases |  |  |  |  | 
2 | O=C(c1ccccc1Cl)c1cccnc1-c1nnn(Cc2cc(C(F)(F)F)cc(C(F)(F)F)c2)c1-c1ccncc1 [tradipitant] |  |  |  |  | diminished; also recorded: reduces | decreases | decreases | decreases | decreases

Source: US20240390353A1, “METHOD OF TREATMENT WITH TRADIPITANT” (Vanda Pharmaceuticals Inc., priority 2018, published 2024)
